Results as given in PubChem BioAssay (NCI).
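Five concentrations, 48 hours, 96-well plates. GI50 is the concentration that inhibits growth by half. TGI: total growth inhibition.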

Legend:
Experiment in all cases: DTP human tumour cell line panel, 48 h
SK-OV-3 ovarian = system: SK-OV-3 ovarian
UACC-257 melanoma = system: UACC-257 melanoma
HCT-116 colon = system: HCT-116 colon
NCI-H522 lung = system: NCI-H522 lung
SNB-75 CNS = system: SNB-75 CNS
TK-10 renal = system: TK-10 renal
DU-145 prostate = system: DU-145 prostate
NCI/ADR-RES ovarian = system: NCI/ADR-RES ovarian
A498 renal = system: A498 renal
T-47D breast = system: T-47D breast

SMILES	TGI (SK-OV-3 ovarian) [µM]	TGI (UACC-257 melanoma) [µM]	TGI (HCT-116 colon) [µM]	TGI (NCI-H522 lung) [µM]	TGI (SNB-75 CNS) [µM]	TGI (TK-10 renal) [µM]	TGI (DU-145 prostate) [µM]	TGI (NCI/ADR-RES ovarian) [µM]	TGI (A498 renal) [µM]	TGI (T-47D breast) [µM]	GI50 (UACC-257 melanoma) [µM]	GI50 (HCT-116 colon) [µM]	GI50 (NCI-H522 lung) [µM]	GI50 (SNB-75 CNS) [µM]	GI50 (A498 renal) [µM]	GI50 (T-47D breast) [µM]	GI50 (TK-10 renal) [µM]	GI50 (DU-145 prostate) [µM]	GI50 (NCI/ADR-RES ovarian) [µM]
Nc1ccc2nc3n(c2c1)C(=O)c1ccccc1-3	> 100	> 100	> 100	> 100	> 100	> 100	> 100	> 100	–	–	–	–	–	–	–	–	–	–	–
Cc1c(C#N)c(N)n(C2OCC(O)C(O)C2O)c(=S)c1C#N (configuration not stated)	> 100	> 100	–	> 100	> 100	> 100	> 100	> 100	> 100	> 100	–	–	–	–	–	–	–	–	–
COc1cc(CNc2nc3cc(C(F)(F)F)ccc3nc2-c2ccccc2)cc(OC)c1OC	–	> 100	> 100	> 100	44	> 100	> 100	81.8	–	6.62	–	–	–	–	–	–	–	–	–
O=C(CNCc1ccccc1)Oc1c(Cl)c(Cl)c(Cl)c(Cl)c1Cl	> 100	54.8	> 100	75.9	> 100	> 100	44.3	> 100	–	67.9	–	–	–	–	–	–	–	–	–
Cc1cc2c(nn1)-c1ccccc1C2=O	> 10	–	> 10	> 10	–	> 10	> 10	> 10	> 10	> 10	–	–	–	–	–	–	–	–	–
C[C@]1(S(=O)(=O)c2ccccc2)C[C@H]2N(Cc3ccccc3)[C@@H]1CCC21OCCO1	> 100	69.3	> 100	> 100	> 100	–	> 100	> 100	–	> 100	–	–	–	–	–	–	–	–	–
O=C(Nc1ccc(-n2cc(-c3ccncc3)c(-c3ccc(O)c(Cl)c3)n2)cc1)Nc1cccc(Cl)c1Cl	–	> 32.5	21.6	> 32.5	> 32.5	22.1	> 32.5	> 32.5	> 32.5	> 32.5	18.6	3.26	4.03	5.51	13.8	8.62	6.52	12.8	> 32.5
O=C(CCCN1CCC2(CC1)C(=NC1CCCCC1)NC(=O)N2c1ccccc1)c1ccc(F)cc1	–	36	46.1	51.3	56	63.2	> 100	51.4	34.1	76.4	–	–	–	–	–	–	–	–	–
O=C(CCc1cccc(O)c1)NCCCNC(=O)CCc1cccc(O)c1	> 100	> 100	> 100	> 100	–	–	> 100	> 100	> 100	> 100	–	–	–	–	–	–	–	–	–
COC(=O)C1=C(O)C(C(=O)OC)[C@@]2(O)[C@@H](C(=O)OC)[C@H](C)[C@@H](C)[C@@H]1[C@@H]2C(=O)OC (some centres not stated)	> 100	> 100	> 100	92.2	> 100	> 100	> 100	–	> 100	> 100	–	–	–	–	–	–	–	–	–
CCCOC(=O)NC(C)C(=O)NC(CCC(=O)NC(CCCC(N)C(=O)O)C(=O)NC(C)C(=O)O)C(=O)O (configuration not stated)	–	–	> 100	> 100	–	> 100	65.3	37	> 100	41.7	–	–	–	–	–	–	–	–	–
CC1(C)[C@@H](Cn2cnc3c(Cl)nc(N)nc32)CC[C@@]1(C)CO	> 100	79.2	> 100	–	> 100	> 100	> 100	> 100	> 100	> 100	–	–	–	–	–	–	–	–	–
COc1ccccc1N1CCN(CCCNC(=O)c2cc(Cl)c(N)c(Cl)c2)CC1	> 100	47.8	> 100	–	> 100	> 100	> 100	> 100	> 100	> 100	–	–	–	–	–	–	–	–	–
CC(C)CCn1nc(N)c2nc3ccccc3nc21	> 100	> 100	> 100	> 100	> 100	> 100	–	> 100	> 100	–	–	–	–	–	–	–	–	–	–
O=C(OCc1ccccc1)C(Cc1ccccc1)N(Cc1ccccc1)Cc1ccccc1 (configuration not stated)	> 100	> 100	> 100	> 100	> 100	> 100	–	–	> 100	–	–	–	–	–	–	–	–	–	–
CCCCC/C(C=O)=C\c1ccccc1	> 100	> 100	> 100	–	> 100	> 100	> 100	> 100	> 100	> 100	–	–	–	–	–	–	–	–	–
O=C1CS(=O)C23c4cc5ccccc5n4CCC2CCCN13 (configuration not stated)	> 100	> 100	> 100	> 100	–	> 100	> 100	> 100	> 100	> 100	–	–	–	–	–	–	–	–	–
O=C1CCc2ccc3c(c21)CC1(Cc2ccccc2C1)C3	> 100	35.7	17.6	92.4	> 100	99.3	> 100	53.6	–	59.2	–	–	–	–	–	–	–	–	–
COc1cc(C=C2C(=O)NC(=S)NC2=O)cc(OC)c1OC	> 100	> 100	> 100	–	> 100	> 100	> 100	> 100	–	> 100	–	–	–	–	–	–	–	–	–
NS(=O)(=O)c1ccc(NC(NC(=O)C(C(F)(F)F)C(F)(F)F)(C(F)(F)F)C(F)(F)F)cc1	> 100	> 100	> 100	> 100	> 100	> 100	> 100	> 100	–	> 100	–	–	–	–	–	–	–	–	–
NC(=O)c1ncn2c1NC(=O)CC2	> 100	> 100	> 100	> 100	> 100	–	–	> 100	> 100	–	–	–	–	–	–	–	–	–	–
CC1=CC(=O)CC2(C)CCC(C(C)CC(=O)CC(C)C)CC12 (configuration not stated)	–	64.1	30.4	30.8	> 100	> 100	> 100	> 100	> 100	–	–	–	–	–	–	–	–	–	–
CN(C)P(=O)(Oc1occc1C(O)Cc1ccccc1)N(C)C (configuration not stated)	> 100	> 100	> 100	> 100	> 100	> 100	–	> 100	> 100	> 100	–	–	–	–	–	–	–	–	–
